# Source: ChEMBL document CHEMBL1135326, “Structure-activity relationship studies of ethyl 2-[(3-methyl-2,5-dioxo(3-pyrrolinyl))amino]-4-(trifluoromethyl)pyrimidine-5-carboxylate: an inhibitor of AP-1 and NF-kappaB mediated gene expression” (Bioorg Med Chem Lett, 2002)
# Test system: Jurkat
# Experiment: Inhibition of AP-1 and NF-kB-mediated transcriptional activation in Jurkat cells
# Type: functional, cell-based, Homo sapiens
Structure (SMILES),"IC50 (Homo sapiens, Jurkat) [nM]",IC50 (jurkat) [nM]
CCOC(=O)c1cnc(NN2C(=O)C=C(C)C2=O)nc1COC,6000,
CCOC(=O)c1cnc(N(C(=O)c2ccccc2)N2C(=O)C=C(C)C2=O)nc1C(F)(F)F,830,
CC1=CC(=O)N(Nc2ncc(-c3nc(C)co3)c(-c3cccs3)n2)C1=O,760,
CCOC(=O)c1cnc(N)nc1C(F)(F)F,30000,
CCOC(=O)c1cnc(NN2C(=O)C=C(c3ccccc3)C2=O)nc1C(F)(F)F,3700,
CCOC(=O)c1cnc(N(C)N2C(=O)C=C(C)C2=O)nc1-c1nccs1,1700,
CC1=CC(=O)N(Nc2ncc(C(=O)O)c(C(F)(F)F)n2)C1=O,30000,
CC(=O)c1cnc(NN2C(=O)C=C(C)C2=O)nc1C(F)(F)F,4400,
CCOC(=O)c1cnc(NN2C(=O)C=C(C)C2=O)nc1,13000,
CC1=CC(=O)N(Nc2ncc(C(=O)N(C)C)c(C(F)(F)F)n2)C1=O,30000,
CCc1nc(NN2C(=O)C=C(C)C2=O)ncc1-c1cc(C)no1,10000,
CCOC(=O)c1cnc(NN2C(=O)C=C(C)C2=O)nc1-c1nccs1,2200,
CCOC(=O)c1cnc(NN2C(=O)C=C(C)C2=O)nc1-c1ccccc1,1200,
CCOC(=O)c1cnc(NN2C(=O)CCC2=O)nc1C(F)(F)F,1600,
CCOC(=O)c1cnc(NN2C(=O)C=C(C)C2=O)nc1C(F)(F)F,2000,
CCOC(=O)c1cnc(NN2C(=O)C=C(C)C2=O)nc1-c1ccco1,1000,
CCc1nc(NN2C(=O)C=C(C)C2=O)ncc1-c1nc(C)co1,830,
CC(=O)c1cnc(NN2C(=O)C=C(C)C2=O)nc1C,7700,
CCc1nc(NN2C(=O)C=C(C)C2=O)ncc1-c1nnc(C)o1,10000,
CCc1nc(NN2C(=O)C=C(C)C2=O)ncc1C(=O)c1ccccc1,650,
CCc1nc(NN2C(=O)C=C(C)C2=O)ncc1-c1nnn(C)n1,10000,
CCc1nc(NN2C(=O)C=C(C)C2=O)ncc1CO,4900,
CC1=CC(=O)N(Nc2ncc(C(N)=O)c(C(F)(F)F)n2)C1=O,30000,
CCc1nc(NN2C(=O)C=C(C)C2=O)ncc1C#N,1100,
CCOC(=O)c1cnc(NN2C(=O)C=C(C)C2=O)nc1-c1cc2ccccc2s1,800,
CCOC(=O)c1cnc(NN2C(=O)C=C(C)C2=O)nc1Cc1ccccc1,3800,
CCc1nc(NN2C(=O)C=C(C)C2=O)ncc1-c1ncc(-c2ccccc2)o1,2800,
CCOC(=O)c1cnc(NN2C(=O)C=C(C)C2=O)nc1C,1900,
CCOC(=O)c1cnc(NN2C(=O)C=C(C)C2=O)nc1C1CC1,1500,
CCOC(=O)c1cnc(NN2C(=O)C(C)=C(C)C2=O)nc1C(F)(F)F,3900,

# These reach a lower IC50 (Homo sapiens, Jurkat). Values come first.
"IC50 (Homo sapiens, Jurkat) [nM]",IC50 (jurkat) [nM],Structure (SMILES)
630,,CCc1nc(N(C)N2C(=O)C=C(C)C2=O)ncc1COC
590,,CCOC(=O)c1cnc(N(C(=O)NC)N2C(=O)C=C(C)C2=O)nc1C(F)(F)F
520,,CCOC(=O)c1cnc(NN2C(=O)C=C(C)C2=O)nc1-c1ccc(Cl)s1
450,,CCOC(=O)c1cnc(N(Cc2ccccc2)N2C(=O)C=C(C)C2=O)nc1C(F)(F)F
450,,CCCC(=O)c1cnc(NN2C(=O)C=C(C)C2=O)nc1CC
430,,CCCc1nc(N(C(C)=O)N2C(=O)C=C(C)C2=O)ncc1C(=O)OCC
410,,CCc1nc(N(C)N2C(=O)C=C(C)C2=O)ncc1C(=O)c1ccccc1
410,,CCOC(=O)c1cnc(N(C(C)=O)N2C(=O)C=C(C)C2=O)nc1C(F)(F)F
400,,CCOC(=O)c1cnc(NN2C(=O)C=C(C)C2=O)nc1CC
380,,CCOC(=O)c1cnc(N(C(=O)OCC)N2C(=O)C=C(C)C2=O)nc1C(F)(F)F
350,,CCOC(=O)c1cnc(N(C)N2C(=O)C=C(C)C2=O)nc1-c1ccc(C)s1
350,450,CCOC(=O)c1cnc(N(C)N2C(=O)C=C(C)C2=O)nc1C(F)(F)C(F)(F)F
300,,CCOC(=O)c1cnc(N(C)N2C(=O)C=C(C)C2=O)nc1C(F)(F)F
210,,CC1=CC(=O)N(Nc2ncc(C(=O)OC(C)(C)C)c(C(F)(F)F)n2)C1=O
200,,CCOC(=O)c1cnc(NN2C(=O)C=C(C)C2=O)nc1C(F)(F)C(F)(F)F
200,,CCOC(=O)c1cnc(NN2C(=O)C=C(C)C2=O)nc1-c1ccsc1
140,,CCOC(=O)c1cnc(NN2C(=O)C=C(C)C2=O)nc1-c1cccs1
130,,CCOC(=O)c1cnc(N(C)N2C(=O)C=C(C)C2=O)nc1-c1cc2ccccc2s1
120,,CCc1nc(NN2C(=O)C=C(C)C2=O)ncc1C(=O)OC1CC1
120,,CCOC(=O)c1cnc(N(C)N2C(=O)C=C(C)C2=O)nc1-c1ccsc1
98,,CC1=CC(=O)N(Nc2ncc(C(=O)c3ccccc3)c(C(F)(F)F)n2)C1=O
94,,CCOC(=O)c1cnc(N(C)N2C(=O)C=C(C)C2=O)nc1-c1cccs1
50,,CC1=CC(=O)N(Nc2ncc(C(=O)OC(C)(C)C)c(-c3cccs3)n2)C1=O
45,,CCOC(=O)c1cnc(NN2C(=O)C=C(C)C2=O)nc1-c1ccc(C)s1
35,,CCOC(=O)c1cnc(N(C)N2C(=O)C=C(C)C2=O)nc1CC
